Test results reported in PubChem BioAssay (NCI).
Values joined by “and” are separate entries in the source; they are usually repeats but may differ in a detail not shown here. Equal values may be shown once.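 Step 1: Grow cells in 96-well plates. Step 2: Expose to compound for 48 hours at 5 concentrations. Step 3: Interpolate endpoints linearly; if unreached, use highest concentration. GI50 = concentration required for 50% inhibition of growth. TGI is the concentration that stops growth completely.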

Columns and labels:
Test in all cases: growth of human tumour cells (NCI), 48 h; in the data active means GI50 below about 0.43 µM; inactive means the rest
[1] = tested on: KM12 colon
[2] = tested on: SNB-75 CNS
[3] = tested on: NCI-H460 lung
[4] = tested on: UACC-257 melanoma
[5] = tested on: SN12C renal
[6] = tested on: OVCAR-8 ovarian
[7] = tested on: SF-268 CNS
[8] = tested on: SW-620 colon
[9] = tested on: CAKI-1 renal
[10] = tested on: MDA-MB-231 breast
[11] = tested on: U251 CNS
[12] = tested on: UACC-62 melanoma
[13] = tested on: SK-MEL-28 melanoma
[14] = tested on: NCI-H226 lung
[15] = tested on: EKVX NSCLC
[16] = tested on: MCF7 breast
[17] = tested on: OVCAR-4 ovarian
[18] = tested on: OVCAR-3 ovarian
[19] = tested on: NCI-H23 lung
[20] = tested on: MDA-N
[21] = tested on: OVCAR-5 ovarian
[22] = tested on: IGROV1 ovarian
[23] = tested on: SR leukemia
[24] = tested on: DU-145 prostate
[25] = tested on: PC-3 prostate
[26] = tested on: K-562 leukemia
[27] = tested on: TK-10 renal
[28] = tested on: SK-MEL-2 melanoma
[29] = tested on: HT29 colon
[30] = tested on: MOLT-4 leukemia
[31] = tested on: RXF 393 renal
[32] = tested on: HL-60(TB) leukemia
[33] = tested on: SK-OV-3 ovarian
[34] = tested on: NCI-H522 lung
[35] = tested on: HCC-2998 colon
[36] = tested on: M14 melanoma
[37] = tested on: A498 renal
[38] = tested on: RPMI-8226 leukemia
[39] = tested on: SNB-19 CNS
[40] = tested on: SF-539 CNS
[41] = tested on: COLO 205 colon
[42] = tested on: 786-0 renal
[43] = tested on: LOX IMVI melanoma
[44] = tested on: A549 NSCLC
[45] = tested on: SF-295 CNS
[46] = tested on: SK-MEL-5 melanoma
[47] = tested on: HOP-92 NSCLC
[48] = tested on: BT-549 breast
[49] = tested on: MDA-MB-435
[50] = tested on: CCRF-CEM leukemia
[51] = tested on: ACHN renal
[52] = tested on: T-47D breast
[53] = tested on: HS 578T breast
[54] = tested on: HOP-62 NSCLC
[55] = tested on: HCT-116 colon
[56] = tested on: HCT-15 colon
[57] = tested on: NCI/ADR-RES ovarian
[58] = tested on: MALME-3M melanoma
[59] = tested on: UO-31 renal

CC(=O)c1c(-c2ccc(Cl)cc2)c(C#N)c(=S)n(C2OC(CO)C(O)C(O)C2O)c1-c1ccccc1 (configuration not stated)
inactive: GI50 [10] > 22.6 µM and 76.3 µM | GI50 [11] 42.8 µM and > 100 µM | GI50 [12] 4.85 µM and 21.9 µM | GI50 [15] 99.7 µM and 22.2 µM | GI50 [17] > 86.4 µM and 14.7 µM | GI50 [21] > 100 µM | GI50 [25] 7.97 µM and 58.6 µM | GI50 [26] 26 µM and > 100 µM | GI50 [28] > 84.5 µM and 35 µM | GI50 [32] 30.9 µM and 62.2 µM | GI50 [37] > 100 µM and 49.7 µM | GI50 [39] 34.8 µM and > 100 µM | GI50 [40] > 100 µM | GI50 [41] 47.3 µM and > 100 µM | GI50 [42] 48.8 µM and > 100 µM | GI50 [43] 15.9 µM and > 100 µM | GI50 [44] 46.7 µM and > 100 µM | GI50 [46] 31.8 µM and > 100 µM | GI50 [50] 13.1 µM and 55.4 µM | GI50 [54] 39.8 µM and > 100 µM | GI50 [55] 17.4 µM and > 100 µM
61.8 µM and > 100 µM: TGI [23]
> 100 µM and 74.1 µM: TGI [47]
99.5 µM and > 100 µM: TGI [50]
29.2 µM and > 100 µM: TGI [30]
> 100 µM: TGI [1] | TGI [2] | TGI [3] | TGI [4] | TGI [5] | TGI [6] | TGI [7] | TGI [8] | TGI [9] | TGI [10] | TGI [11] | TGI [12] | TGI [13] | TGI [14] | TGI [15] | TGI [16] | TGI [17] | TGI [18] | TGI [19] | TGI [20] | TGI [21] | TGI [22] | TGI [24] | TGI [25] | TGI [26] | TGI [27] | TGI [28] | TGI [29] | TGI [31] | TGI [32] | TGI [33] | TGI [34] | TGI [35] | TGI [36] | TGI [37] | TGI [38] | TGI [39] | TGI [40] | TGI [41] | TGI [42] | TGI [43] | TGI [44] | TGI [45] | TGI [46] | TGI [48] | TGI [49] | TGI [51] | TGI [52] | TGI [53] | TGI [54] | TGI [55] | TGI [56] | TGI [57] | TGI [58]

COC(=O)C1C(O)C(C)C(O)C(C)(O)C=C(C)C2=C3C(=C(C)C(=O)c4c(O)c(c(C)c(OC(C)=O)c43)NC(=O)C(C)=C/C=C\C(C)(O)C(O)C(C)C1O)OCO2 (configuration not stated)
> 100 µM: TGI [1] | TGI [2] | TGI [3] | TGI [5] | TGI [6] | TGI [7] | TGI [8] | TGI [10] | TGI [11] | TGI [12] | TGI [13] | TGI [14] | TGI [15] | TGI [16] | TGI [17] | TGI [19] | TGI [20] | TGI [21] | TGI [22] | TGI [23] | TGI [24] | TGI [25] | TGI [26] | TGI [27] | TGI [28] | TGI [29] | TGI [30] | TGI [31] | TGI [32] | TGI [33] | TGI [34] | TGI [35] | TGI [36] | TGI [37] | TGI [38] | TGI [39] | TGI [40] | TGI [42] | TGI [43] | TGI [44] | TGI [45] | TGI [47] | TGI [48] | TGI [49] | TGI [50] | TGI [51] | TGI [52] | TGI [53] | TGI [54] | TGI [55] | TGI [56] | TGI [59] | TGI [57]
74.2 µM: TGI [58]
47.7 µM: TGI [46]
57 µM: TGI [18]
78 µM: TGI [4]
69.7 µM: TGI [41]
